This is an account of results in patent US11116759B2, “Method of treating cancer” (Exelixis, Inc., priority 2011, dated 2021).

Data set [1] concerns pancreatic neuroendocrine tumor. Briefly: Murine pancreatic neuroendocrine tumor model. The data set is classed as in vivo.
For a further data set, the system named is xenograft tumor models. The data set can be described thus: Xenograft tumor models. The class given is in vivo.
Data set [2] is described as follows: Phase 1 clinical study, tolerability. The data set is classed as in vivo. As to conditions: most common adverse events fatigue, diarrhea, anorexia, rash, palmar-plantar erythrodysesthesia.
Data set [3] has as its system endothelial cells and tumor cells. Briefly: Apoptosis of endothelial cells and tumor cells. The data set is classed as cell-based.
Data set [4] concerns melanoma, including ocular melanoma. Briefly: Phase 2 randomized discontinuation trial in adults with melanoma (NCT00940225). The class given is in vivo, human. As for the experimental part:
Compound 1 was used in a Phase 2 randomized discontinuation trial study of adults with melanoma, including ocular melanoma (See NCT00940225, Abstract 371). Compound 1 was administered at a daily dose of 100 mg (125 mg salt equivalent). The study endpoints included objective response rate (ORR) per mRECIST in the lead-in stage, and progression-free survival in the randomized stage. The eligibility criteria included: (a) pathologically and radiologically confirmed diagnosis of advanced melanoma; (b) cutaneous, mucosal, or ocular subtypes; (c) up to two lines of prior systemic treatment (not including immunotherapy); (d) documented progressive disease and measurable target lesion(s) per mRECIST; and (e) no known brain metastases. Tumors were assessed by CT/MRI at baseline and every 6 weeks thereafter. Archival tumor tissue was retained for genotyping and biomarker analysis.

Structures are written as SMILES.

For the compound `COc1cc2nccc(Oc3ccc(NC(=O)C4(C(=O)Nc5ccc(F)cc5)CC4)cc3)c2cc1OC` [Compound 1, N-(4-{[6,7-bis(methyloxy)quinolin-4-yl]oxy}phenyl)-N′-(4-fluorophenyl)cyclopropane-1,1-dicarboxamide], in data set [1], the Overall survival entry is reported as “substantially improves overall survival”; the “Tumor invasiveness and metastasis” value is “significantly reduces tumor invasiveness and metastasis”. Also, the Effect on tumor result in the data set on xenograft tumor models is on record as “causes tumor regression”. Moreover, the Tolerability entry in data set [2] is recorded as “generally well-tolerated”. For the same compound, the Induction of apoptosis result in data set [3] is recorded as “rapidly induces apoptosis”. In addition, the “Patients with objective tumor shrinkage” value in data set [4] (all enrolled patients with melanoma, daily dose of 100 mg) was “sixty”. In addition, the Best response entry in data set [4] (ocular melanoma Patients 5, 6, 14, 15, 18, 20, 22, 26, 28 and 29 (FIGS. 4A and 4B)) is “stable disease”. Besides, the “Patients with evidence of objective tumor regression” value in data set [4] (patients with ocular cancer, six months) is 48%. Further, the Disease control rate in data set [4] (patients with ocular cancer, week 12) was 14%. In addition, the “Patients showing a positive disease control rate” value in data set [4] (patients with ocular melanoma who were tested (FIG. 3)) was “Eight of the fourteen”. The Partial response observed entry in data set [4] (patients with ocular melanoma, week 6) is reported as “One”.
